The test system of the first experiment is Stimulated LTB4 Formation in Human Whole Blood. Kind of experiment: Calcium ionophore (A23187)-induced LTB4 biosynthesis in human whole blood (in vitro leukotriene biosynthesis inhibition). It counts as cell-based. To be noted: human heparinized whole blood; 15 min preincubation at 37° C.; A23187 8.3 μM, 30 minutes. As for the experimental part:
Inhibition of leukotriene biosynthesis was evaluated in an assay, involving calcium ionophore-induced LTB4 biosynthesis expressed human whole blood. Human heparinized whole blood was preincubated with test compounds or vehicle for 15 min at 37° C. followed by calcium ionophore A23187 challenge (final concentration of 8.3 μM) and the reaction terminated after 30 minutes by adding two volumes of methanol containing prostaglandin B2 as an internal recovery standard. The methanol extract was analyzed for LTB4 using a commercially available radioimmunoassay.
In Vitro Inhibitory Potencies Against Stimulated LTB4 Formation
Take `CC(C#Cc1ccc(Cc2ccc(F)cc2)o1)N(O)C(N)=O` (stereo not drawn) [Example 1, N-{3-[5-(4-Fluorophenylmethyl)fur-2-yl]-1-methyl-2-propynyl}-N-hydroxyurea]: the IC50 (in general, the midpoint of a concentration-inhibition curve) was found to be 60 nM. Still for that read-out and setting: in the case of `CC(C#Cc1ccc(/C=C/c2ccc(F)cc2)o1)N(O)C(N)=O` (stereo not drawn) [Example 5, N-[4-(5-{2-[4-Fluorophenyl]ethenyl}fur-2-yl)-1-methyl-2-propynyl]-N-hydroxyurea] it was 620 nM; in that of `CC(C#Cc1ccc(/C=C/c2ccccn2)o1)N(O)C(N)=O` (stereo not drawn) [Example 7, N-Hydroxy-N-[4-(5-{2-[2-pyridyl]ethenyl}fur-2-yl)-1-methyl-2-propynyl]urea], 350 nM. Still for that read-out and setting: then `Cc1ccc(/C=C/c2ccc(C#CC(C)N(O)C(N)=O)o2)cc1` (stereo not drawn) [Example 9, N-Hydroxy-N-[4-(5-{2-[5-methylphenyl]ethenyl}fur-2-yl)-1-methyl-2-propynyl]urea], with 300 nM; and `CC(C#Cc1ccc(Cc2ccc(F)cc2)s1)N(O)C(N)=O` (stereo not drawn) [Example 12, N-{3-[5-(4-Fluorophenylmethyl)-2-thienyl]-1-methyl-2-propynyl}-N-hydroxyurea], with 70 nM; and `C[C@H](C#Cc1ccc(Cc2ccc(F)cc2)s1)N(O)C(N)=O` [Example 13, (R)-N-{3-[5-(4-Fluorophenylmethyl)-2-thienyl]-1-methyl-2-propynyl}-N-hydroxyurea], with 70 nM.

Still in this experiment, the particulars now being: human heparinized whole blood; A23187 8.3 μM, 30 minutes; test concentration not stated.
As for `CC(C#Cc1ccc(C(=O)c2ccc(F)cc2)o1)N(O)C(N)=O` (stereo not drawn) [Example 2], the “% inhibition of stimulated LTB4 formation in human whole blood” value is given as 72%. `CC(C#Cc1ccc(/C=C/c2cccnc2)o1)N(O)C(N)=O` (stereo not drawn) [Example 4, N-Hydroxy-N-[4-(5-{2-[3-pyridyl]ethenyl}fur-2-yl)-1-methyl-2-propynyl]urea]: the “% inhibition of stimulated LTB4 formation in human whole blood” value is given as 39%. The same measure, in the same setting: in the case of `CC(C#Cc1ccc(/C=C/c2ccccc2)o1)N(O)C(N)=O` (stereo not drawn) [Example 6, N-Hydroxy-N-[4-(5-{2-phenylethenyl}fur-2-yl)-1-methyl-2-propynyl]urea] it was 40%. The same measure, in the same setting: in the case of `CC(C#Cc1ccc(/C=C/c2ccc(F)cc2)s1)N(O)C(N)=O` (stereo not drawn) [Example 8] it was 62%.

For another experiment, the system named is biosynthesis of leukotrienes (peritoneal fluid leukotriene levels). Nature of the experiment: Inhibition of leukotriene biosynthesis in vivo, rat peritoneal anaphylaxis model, oral administration. The note with it: single 30 μmol/kg oral dose, gavage one hour prior to antigen challenge, 15 minutes after challenge. As for the experimental part: Inhibition of the biosynthesis of leuktrienes in vivo after oral administration of compound was determined using a rat peritoneal anaphylaxis model in a similar manner as that described by Young and coworkers (Young, P. R.; Dyer, R. D.; Carter, G. W., Fed. Proc., Fed. Am. Soc. Exp. Biol. 1985, 44: 1185). In this model rats were injected intraperitoneally (ip) with rabbit antibody to bovine serum albumin (BSA) and three hours later injected ip with BSA to induce an antigen-antibody response. Rats were sacrificed 15 minutes after this challenge and the peritoneal fluids were collected and analyzed for leukotriene levels. Test compounds were administered by gavage one hour prior to the antigen challenge. Percent inhibition values were determined by comparing the treatment group to the mean of the control group. Compounds of this invention prevent the formation of leukotrienes in this model after oral administration in a range of 1-200 μmol/kg.
Regarding `CC(C#Cc1ccc(Cc2ccc(F)cc2)o1)N(O)C(N)=O` (stereo not drawn) [Example 1, N-{3-[5-(4-Fluorophenylmethyl)fur-2-yl]-1-methyl-2-propynyl}-N-hydroxyurea], the “% inhibition of leukotriene formation in vivo” value is reported as 68%. Regarding `CC(C#Cc1ccc(Cc2ccc(F)cc2)s1)N(O)C(N)=O` (stereo not drawn) [Example 12, N-{3-[5-(4-Fluorophenylmethyl)-2-thienyl]-1-methyl-2-propynyl}-N-hydroxyurea], the “% inhibition of leukotriene formation in vivo” value was 72%.

The values are drawn from patent US5288751A, “[(Substituted) phenyalkyl]furylalkynyl-and [substituted) phenyalkyl] thienylalkynyl-N-hydroxyurea inhibitors or leukotriene biosynthesis” (Abbott Laboratories, priority 1992, dated 1994).
